Assay results: PMC6554663, “Pharmaceutical Effects of Inhibiting the Soluble Epoxide Hydrolase in Canine Osteoarthritis” (Frontiers in Pharmacology, 2019)

Test system: Canine chondrocytes (CnC)
Experiment: IL1β induced chondrocyte cytotoxicity (Alamar Blue)
Format: cell-based
Settings: meloxicam 1 μg/mL, EET 0.4 μg/mL total, 48 h
Description: Canine chondrocytes (CnC) were purchased from Cell Applications, Inc. […] Cells were kept at room temperature and monitored for detachment (∼2 min). Detached cells were added to 3× volume of full growth media and centrifuged to remove trypsin. Cells were reseeded at a concentration of 15,000 cells/cm^2 to reach 80% confluence in 3 days. Cells were expanded and frozen at the third passage in CGS containing 10% DMSO. For individual experiments, fresh cells were thawed and used at passage 5. Canine chondrocytes cells were plated in 96-well plates at a density of 15,000 cells/cm^2. Optimal cell number was predetermined by a cell seeding experiment outlined in [O'Brien et al. […] After 2 h, the IL1β treated media was aspirated and replaced with complete growth media supplemented with either vehicle (0.1% ethanol), regioisomers of EETs, or meloxicam for 48-h before assessing inflammatory cytokines and cytotoxicity. Cells were also pretreated with meloxicam or EET mixture 30 min prior to adding IL1β treatment for 2-h. After IL1β was removed, treatments were added to complete growth media for 48-h as described above. Treatment conditions are described in the Section “Results.” After the CnC cells were treated for 48-h under conditions described above, the media was removed and replaced with complete media containing 10% Alamar Blue (Life Technologies, catalog number DAL1025). The Alamar Blue assay relies on the metabolism of non-fluorescent resazurin to the highly fluorescent resorufin by healthy cells. Fluorescent intensity can be used to track cytotoxicity after xenobiotic treatments ([Larson et al., 1997]). After the addition of Alamar Blue, plates were protected from light and incubated at […] in a 5% CO2 atmosphere for 8 h. The conversion of resazurin was monitored by reading fluorescence at 570 excitations and 585 emission on a plate reader (Tecan […]) and cytotoxicity was calculated as the ratio of fluorescence from treated cells to non-treated controls.

How did the “IL1β induced cytotoxicity, treatment added after IL1β” value (10 ng/mL IL1β 2 h) turn out when `Cc1cnc(NC(=O)C2=C(O)c3ccccc3S(=O)(=O)N2C)s1` [Meloxicam] was run?
The value was “did not result in significant reduction in cytotoxicity”.

And the “IL1β induced cytotoxicity, treatment added before IL1β” value (10 ng/mL IL1β 2 h)?
The value was “significantly reduced”.

And the “effect on healthy CnC cells (cytotoxicity, Alamar Blue)” value (absence of IL1β)?
The value was “no effect”.
